Experimental data published in US20190022152A1, “MICROBIOME RESPONSE TO AGENTS” (Yeda Research and Development Co., Ltd., priority 2014, published 2019).
Peptide text beside a SMILES is read from it.

How the values were obtained:
[1] = test system: fecal matter from naïve mice; experiment: In vitro anaerobic culturing of fecal matter with saccharin; format: cell-based; settings: In vitro, PBS vs. SAC
Protocol: pooled fecal matter from naïve adult WT C57Bl/6 male mice was resuspended in 5 ml PBS in an anaerobic chamber (Coy Laboratory Products, 75% N2, 20% CO2, 5% H2), vortexed for 3 minutes and allowed to settle by gravity for 2 minutes. […] were added to a tube containing Chopped Meat Carbohydrate Broth, PR II (BD) and […] of a 5 mgml-1 saccharin solution or an equal volume of PBS. Every 3 days, 500 ml of culture were diluted to fresh medium containing saccharin or PBS. After 9 days, cultures were used for inoculation of germ-free mice.
Frozen fecal samples were processed for DNA isolation using the MoBio PowerSoil kit according to the manufacturer's instructions. […] the variable region 2 (V2) of the 16S rRNA gene were generated by using the following barcoded primers: Fwd 5′-[…]-3′ (SEQ ID NO: 3), Rev 5′-[…]-3′ (SEQ ID NO: 4). […] Reads were then processed using the QIIME (Quantitative Insights Into Microbial Ecology) analysis pipeline as described, version 1.8. Paired-end joined sequences were grouped into operational taxonomic units (OTUs) using the UCLUST algorithm and the greengenes database. Sequences with distance-based similarity of 97% or greater over median sequence length of 353 bp were assigned to the same OTU. Samples were grouped according to the treatment. […] P-values were FDR corrected for multiple hypothesis testing.

mice = experiment: Oral glucose tolerance test in mice drinking non-caloric artificial sweeteners (NAS); format: in vivo; settings: lean C57Bl/6 mice, normal chow, commercial NAS formulations in drinking water, week 11; p<0.001 vs water, glucose, sucrose
Excerpt: C57Bl/6 WT adult male mice were randomly assigned (without blinding) to treatment groups and were given commercial artificial sweeteners (saccharin-, sucralose- or aspartame-based) or pure saccharin (Sigma Aldrich) in drinking water and fed a high-fat (HFD D12492, 60% Kcal from fat, Research Diets) or standard polysaccharide normal chow (NC) diet (Harlan-Teklad). Compared groups were always fed from the same batch of diet. For antibiotic treatment, mice were given a combination of ciprofloxacin (0.2 gl^−1) and metronidazole ([…]) or vancomycin (0.5 gl^−1) in their drinking water. All antibiotics were obtained from Sigma Aldrich. Adult male outbred Swiss-Webster mice (a widely used mouse strain in germ-free experiments) served as recipients for fecal transplants and were housed in sterile isolators (Park Biosciences). For fecal transplantation experiments, 200 mg of stool (from mouse pellets or human swabs) was resuspended in 5 ml of PBS under anaerobic conditions, vortexed for 3 minutes and allowed to settle by gravity for 2 minutes. Recipient mice were gavaged with 200 μl of the supernatant and maintained on standard NC diet and water throughout the experiment.
The following commercially available NAS were dissolved in mice drinking water to obtain a 10% solution: Sucrazit (5% saccharin, 95% glucose), Sucralite (5% Sucralose), Sweet'n Low Gold (4% Aspartame). 10% glucose (J.T. Baker) and 10% sucrose (Sigma Aldrich) solutions were used for controls. […] For experiments conducted with pure saccharin (Sigma Aldrich) a 0.1 mgml^−1 solution was used in order to meet with FDA defined ADI for saccharin in humans (5 mgkg^−1), according to the following calculation:
Mice were fasted for 6 hours during the light phase, with free access to water. In all groups of mice where the drinking regime was other than water, it was substituted for water for the period of the fasting and glucose or insulin tolerance test. Blood from the tail vein was used to measure glucose levels using a glucometer (Bayer) immediately before and 15, 30, 60, 90 and 120 minutes after oral feeding with 40 mg glucose (J.T. Baker) or intra-peritoneal injection with 0.1 Ukg^−1 Insulin (Biological Industries). Plasma fasting insulin levels were measured in sera collected immediately before the start of GTT using ELISA (Ultra Sensitive Mouse Insulin ELISA Kit, Crystal Chem).

[2] = literature values; cited from earlier work

O=C1NS(=O)(=O)c2ccccc21 [SAC]
Log_fold change: 2-Oxocarboxylic acid metabolism [1]: 0.01 | Log_fold change: ABC transporters [1]: −0.03 | Log_fold change: Alanine, aspartate and glutamate metabolism [1]: −0.01 | Log_fold change: Amino sugar and nucleotide sugar metabolism [1]: 0.01 | Log_fold change: Aminoacyl-tRNA biosynthesis [1]: −0.02 | Log_fold change: Aminobenzoate degradation [1]: −0.01 | Log_fold change: Arginine and proline metabolism [1]: −0.01 | Log_fold change: Ascorbate and aldarate metabolism [1]: 0.03 | Log_fold change: Atrazine degradation [1]: −0.05 | Log_fold change: Bacterial chemotaxis [1]: 0.03 | Log_fold change: Bacterial secretion system [1]: 0.01 | Log_fold change: Base excision repair [1]: 0.00 | Log_fold change: Benzoate degradation [1]: −0.01 | Log_fold change: Biosynthesis of amino acids [1]: 0.00 | Log_fold change: Biosynthesis of siderophore group nonribosomal peptides [1]: −0.02 | Log_fold change: Biosynthesis of unsaturated fatty acids [1]: −0.03 | Log_fold change: Biotin metabolism [1]: −0.01 | Log_fold change: Bisphenol degradation [1]: 0.00 | Log_fold change: Butanoate metabolism [1]: −0.01 | Log_fold change: CS-Branched dibasic acid metabolism [1]: 0.01 | Log_fold change: Caprolactam degradation [1]: −0.02 | Log_fold change: Carbon fixation in photosynthetic organisms [1]: 0.00 | Log_fold change: Carbon fixation pathways in prokaryotes [1]: 0.00 | Log_fold change: Carbon metabolism [1]: −0.01 | Log_fold change: Cell cycle-Caulobacter [1]: 0.00 | Log_fold change: Chloroalkane and chloroalkene degradation [1]: −0.03 | Log_fold change: Citrate cycle (TCA cycle) [1]: 0.00 | Log_fold change: Cyanoamino acid metabolism [1]: 0.02 | Log_fold change: Cysteine and methionine metabolism [1]: 0.01 | Log_fold change: D-Alanine metabolism [1]: −0.04 | Log_fold change: D-Arginine and D-ornithine metabolism [1]: 0.24 | Log_fold change: D-Glutamine and D-glutamate metabolism [1]: −0.03 | Log_fold change: DDT degradation [1]: −0.35 | Log_fold change: DNA replication [1]: 0.00 | Log_fold change: Dioxin degradation [1]: −0.12 | Log_fold change: Drug metabolism-other enzymes [1]: 0.00 | Log_fold change: Ether lipid metabolism [1]: −0.02 | Log_fold change: Fatty acid biosynthesis [1]: −0.01 | Log_fold change: Fatty acid degradation [1]: −0.01 | Log_fold change: Fatty acid metabolism [1]: 0.00 | Log_fold change: Flagellar assembly [1]: 0.07 | Log_fold change: Folate biosynthesis [1]: 0.00 | Log_fold change: Fructose and mannose metabolism [1]: 0.00 | Log_fold change: Galactose metabolism [1]: 0.02 | Log_fold change: Geraniol degradation [1]: 0.00 | Log_fold change: Glutathione metabolism [1]: −0.03 | Log_fold change: Glycerolipid metabolism [1]: 0.00 | Log_fold change: Glycerophospholipid metabolism [1]: −0.02 | Log_fold change: Glycine, serine and threonine metabolism [1]: 0.00 | Log_fold change: Glycolysis/Gluconeogenesis [1]: −0.02 | Log_fold change: Glycosaminoglycan degradation [1]: 0.03 | Log_fold change: Glycosphingolipid biosynthesis-globoseries [1]: 0.05 | Log_fold change: Glyoxylate and dicarboxylate metabolism [1]: 0.01 | Log_fold change: Histidine metabolism [1]: 0.01 | Log_fold change: Homologous recombination [1]: −0.01 | Log_fold change: Inositol phosphate metabolism [1]: 0.02 | Log_fold change: Limonene and pinene degradation [1]: −0.01 | Log_fold change: Lipoicacid metabolism [1]: −0.01 | Log_fold change: Lipopolysaccharide biosynthesis [1]: 0.01 | Log_fold change: Lysine biosynthesis [1]: 0.00 | Log_fold change: Lysine degradation [1]: −0.03 | Log_fold change: Methane metabolism [1]: −0.01 | Log_fold change: Mismatch repair [1]: −0.01 | Log_fold change: Naphthalene degradation [1]: −0.02 | Log_fold change: Nicotinate and nicotinamide metabolism [1]: −0.02 | Log_fold change: Nitrogen metabolism [1]: 0.00 | Log_fold change: Nitrotoluene degradation [1]: −0.05 | Log_fold change: Novobiocin biosynthesis [1]: 0.02 | Log_fold change: Nucleotide excision repair [1]: 0.00 | Log_fold change: One carbon pool by folate [1]: 0.01 | Log_fold change: Other glycan degradation [1]: 0.03 | Log_fold change: Oxidative phosphorylation [1]: −0.02 | Log_fold change: Pantothenate and CoA biosynthesis [1]: 0.00 | Log_fold change: Penicillin and cephalosporin biosynthesis [1]: −0.02 | Log_fold change: Pentose and glucuronate interconversions [1]: 0.02 | Log_fold change: Pentose phosphate pathway [1]: 0.00 | Log_fold change: Peptidoglycan biosynthesis [1]: −0.02 | Log_fold change: Phenylalanine metabolism [1]: 0.01 | Log_fold change: Phenylalanine, tyrosine and tryptophan biosynthesis [1]: 0.01 | Log_fold change: Phosphonate and phosphinate metabolism [1]: −0.01 | Log_fold change: Phosphotransferase system (PTS) [1]: −0.17 | Log_fold change: Porphyrin and chlorophyll metabolism [1]: 0.01 | Log_fold change: Propanoate metabolism [1]: −0.01 | Log_fold change: Protein export [1]: −0.01 | Log_fold change: Proximal tubule bicarbonate reclamation [1]: −0.02 | Log_fold change: Purine metabolism [1]: −0.01 | Log_fold change: Pyrimidine metabolism [1]: −0.01 | Log_fold change: Pyruvate metabolism [1]: 0.00 | Log_fold change: RNA degradation [1]: −0.01 | Log_fold change: Riboflavin metabolism [1]: 0.01 | Log_fold change: Ribosome [1]: −0.01 | Log_fold change: Selenocompound metabolism [1]: −0.01 | Log_fold change: Sphingolipid metabolism [1]: 0.04 | Log_fold change: Starch and sucrose metabolism [1]: 0.01 | Log_fold change: Streptomycin biosynthesis [1]: 0.00 | Log_fold change: Styrene degradation [1]: 0.06 | Log_fold change: Sulfur metabolism [1]: −0.01 | Log_fold change: Sulfur relay system [1]: −0.03 | Log_fold change: Synthesis and degradation of ketone bodies [1]: −0.09 | Log_fold change: Taurine and hypotaurine metabolism [1]: 0.00 | Log_fold change: Terpenoid backbone biosynthesis [1]: −0.01 | Log_fold change: Tetracycline biosynthesis [1]: −0.15 | Log_fold change: Thiamine metabolism [1]: −0.02 | Log_fold change: Tropane, piperidine and pyridine alkaloid biosynthesis [1]: 0.02 | Log_fold change: Tryptophan metabolism [1]: −0.04 | Log_fold change: Two−component system [1]: 0.01 | Log_fold change: Tyrosine metabolism [1]: −0.01 | Log_fold change: Ubiquinone and other terpenoid-quinone biosynthesis [1]: −0.03 | Log_fold change: Valine, leucine and isoleucine biosynthesis [1]: 0.01 | Log_fold change: Valine, leucine and isoleucine degradation [1]: 0.00 | Log_fold change: Vibriocholerae pathogenic cycle [1]: 0.00 | Log_fold change: Vitamin B6 metabolism [1]: 0.00 | Log_fold change: Xylene degradation [1]: −0.12 | Log_fold change: beta-Alanine metabolism [1]: −0.01 | Log_fold change: beta-Lactam resistance [1]: 0.01

COC(=O)[C@H](Cc1ccccc1)NC(=O)[C@@H](N)CC(=O)O [aspartame] (H-Asp-Phe-OMe)
glucose tolerance (OGTT) (mice): marked glucose intolerance | reported toxic dose [2]: 4 gkg^−1

OC[C@H]1O[C@H](O[C@]2(CCl)O[C@H](CCl)[C@@H](O)[C@@H]2O)[C@H](O)[C@@H](O)[C@H]1Cl [sucralose]
glucose tolerance (OGTT) (mice): marked glucose intolerance | reported toxic dose [2]: 16 gkg^−1
